Here are results for four compounds from patent publication US5061711A, “Method of curing liver diseases by using pyrrolo quinoline quinone triesters and novel pyrrolo quinoline quinone triesters” (Mitsubishi Gas Chemical Company, Inc., priority 1989, dated 1991).

Data set [1] can be described thus: Solubility. Format: physicochemical.
The conditions of data set [2]: bovine, not told, 960 min.
Procedure: Each compound dissolved in 10 mM HEPES buffer (containing 1%DMSO in the case of PQQ triesters) was put in an apparatus for measurement of membrane permeation constant and left to stand for 16 hours at 35 ° C. and then amount of the compound which migrated was measured by ultraviolet absorption (243 nm for PQQ 2Na and 255 nm for PQQ triester) to obtain membrane permeation constant.
Data set [3] concerns liver diseases. Particulars: cited from earlier work.
Data set [4] relates to mice. Description: Kidney toxicity determined by urine test. Particulars: mouse, in vivo, ip. Format: in vivo, mouse. As for the experimental part:
(2) Kidney toxicity determined by urine test
PQQ.2Na, PQQ trimethyl ester and PQQ triallyl ester were intraperitoneally administered to mice and they were bred in the same manner as in the above acute toxicity test. The doses per kg of body weight of mouse were 20, 40 and 80 mg for PQQ.2Na and 20, 40, 80, 160 and 200 mg for PQQ triesters. Urine was collected every day and glucose concentration was examined using clinical examination reagent (trademark: […] II manufactured by Miles.Sankyo Co.).

In data set [5] the test system is kidney. Particulars: Watanabe et al 1989; cited from earlier work.
Data set [6] has as its system male mice SPF-ICR. The experiment in a line: Acute toxicity test. Particulars: mouse, in vivo, ip. As for the experimental part:
To male mice SPF-ICR five weeks old (supplied by Japan Charles River Co.) were intraperitoneally administered PQQ.2Na, PQQ trimethyl ester and PQQ triallyl ester at dosages of 40, 80, 160 and 200 mg per kg of body weight of mouse, respectively and they were bred for 14 days at 25° C. One group consisted of 8 mice. For administration, PQQ.2Na was dissolved in physiological saline and PQQ trimethyl ester and PQQ triallyl ester were suspended in 1%Tween 80-containing physiological saline, respectively.

Data set [7] has as its system mice. Description: Kidney toxicity determined by blood examination. The data set is classed as in vivo, mouse. Particulars: mouse, in vivo, ip. As for the experimental part: (3) Kidney toxicity determined by blood examination:
After lapse of one day from the administration, the mice were fasted (only water was given) and then after 18 hours, blood was collected and serum was obtained therefrom. Glucose, urea nitrogen and creatinine in the serum were examined by clinical examination reagent (trademark: FUJI DRYCHEMSLIDE manufactured by Fuji Photo Film Co., Ltd.). The results are shown by average value of eight mice in Table 3.

Molecules are shown by their SMILES. Read-outs that look alike come from different tables or passages of the source.

For `O=C(OCc1ccccc1)c1cc(C(=O)OCc2ccccc2)c2c(n1)C(=O)C(=O)c1cc(C(=O)OCc3ccccc3)[nH]c1-2` [PQQ tribenzyl ester], the Solubility result in data set [1] (acetone) is “Very soluble”; in data set [1] (chloroform) it was “Very soluble”; in data set [1] (ethanol), “Very soluble”; in data set [1] (methanol) it was “Very soluble”; in data set [1] (water), “hardly soluble”.

Turning to `CCOC(=O)c1cc(C(=O)OCC)c2c(n1)C(=O)C(=O)c1cc(C(=O)OCC)[nH]c1-2` [PQQ triethyl ester], in data set [2], the Membrane permeation constant is on record as 1.22 ± 0.37 10^-7 cm^2 · sec^-1 and the “membrane permeation constant relative to that of PQQ.2Na” value is given as “about 2 times”.

In the case of `O=C(O)c1cc(C(=O)O)c2c(n1)C(=O)C(=O)c1cc(C(=O)O)[nH]c1-2` [PQQ, pyrrolo quinoline quinone], the “inhibition of liver diseases” value is listed as “inhibit liver diseases” in data set [3] (administered intraperitoneally, Japanese Patent Kokai No. 63-192717) and “not observed” in data set [3] (orally administered, Watanabe et al 1988). In data set [4], the “kidney toxicity by urine test (in words)” value is “showed kidney toxicity”. The kidney toxicity result in data set [5] is listed as “has kidney toxicity”.

`O=C(O)c1cc(C(=O)O)c2c(n1)C(=O)C(=O)c1cc(C(=O)O)[nH]c1-2` [PQQ.2Na, reference compound]: the mice died entry in data set [6] (40 mg/kg) is reported as “No mice died”; in data set [6] (80 mg/kg) it was “five mice died”; in data set [6] (160 mg/kg), “eight mice all died”; in data set [6] (200 mg/kg), “eight mice all died”. The “glucose in urine (in words)” value in data set [4] is “glucose was detected”. Besides, the glucose in urine entry in data set [4] (20 mg/kg), in data set [4] (40 mg/kg) and in data set [4] (80 mg/kg) was “-” throughout. For the same compound, the “creatinine in serum (in words)” value in data set [7] was “much increase”. The “glucose in serum (in words)” value in data set [7] was “Sharp reduction”. Also, the “kidney toxicity (in words)” value in data set [7] was “kidney toxicity was observed”. Further, in data set [7], the “urea nitrogen in serum (in words)” value was “much increase”. The Creatinine in serum is 0.5 mg/dL in data set [7] (20 mg/kg), 2.3 mg/dL in data set [7] (40 mg/kg), 3.4 mg/dL in data set [7] (80 mg/kg) and 4.2 mg/dL in data set [7] (160 mg/kg). Further, the Glucose in serum worked out at 70 mg/dL in data set [7] (20 mg/kg), 60 mg/dL in data set [7] (40 mg/kg), 57 mg/dL in data set [7] (80 mg/kg) and 35 mg/dL in data set [7] (160 mg/kg). Further, the “Urea nitrogen in serum” value was 21 mg/dL in data set [7] (20 mg/kg), 110 mg/dL in data set [7] (40 mg/kg), 130 mg/dL in data set [7] (80 mg/kg) and 139 mg/dL in data set [7] (160 mg/kg). Moreover, in data set [2], the Membrane permeation constant was 0.68 ± 0.36 10^-7 cm^2 · sec^-1.
